Key:
Assay in all cases: Kinase selectivity, scanMAX Kinase assay panel (DiscoverX), % control at 1 uM
Type in all cases: binding
[1] = biological target: T1, scanMAX Kinase assay panel (Homo sapiens, UniProt P00533, L858R/T790M); details: EGFR (L858R, T790M); 1 uM; read-out: Percent Control (%)
T1 construct: purchased DiscoverX
Method in brief: (§1)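 Read-out is percent of control, derived from the signal with compound relative to positive and negative controls: (compound − positive)/(negative − positive) × 100. Each enzyme received test drug at 1 uM in DMSO, and values under 35% count as active.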

[2] = biological target: T2, scanMAX Kinase assay panel (Homo sapiens, UniProt P29322); details: EPHA8; 1 uM; read-out: Percent Control (%)
T2 construct: purchased DiscoverX
T2 sequence (P29322 28-1005): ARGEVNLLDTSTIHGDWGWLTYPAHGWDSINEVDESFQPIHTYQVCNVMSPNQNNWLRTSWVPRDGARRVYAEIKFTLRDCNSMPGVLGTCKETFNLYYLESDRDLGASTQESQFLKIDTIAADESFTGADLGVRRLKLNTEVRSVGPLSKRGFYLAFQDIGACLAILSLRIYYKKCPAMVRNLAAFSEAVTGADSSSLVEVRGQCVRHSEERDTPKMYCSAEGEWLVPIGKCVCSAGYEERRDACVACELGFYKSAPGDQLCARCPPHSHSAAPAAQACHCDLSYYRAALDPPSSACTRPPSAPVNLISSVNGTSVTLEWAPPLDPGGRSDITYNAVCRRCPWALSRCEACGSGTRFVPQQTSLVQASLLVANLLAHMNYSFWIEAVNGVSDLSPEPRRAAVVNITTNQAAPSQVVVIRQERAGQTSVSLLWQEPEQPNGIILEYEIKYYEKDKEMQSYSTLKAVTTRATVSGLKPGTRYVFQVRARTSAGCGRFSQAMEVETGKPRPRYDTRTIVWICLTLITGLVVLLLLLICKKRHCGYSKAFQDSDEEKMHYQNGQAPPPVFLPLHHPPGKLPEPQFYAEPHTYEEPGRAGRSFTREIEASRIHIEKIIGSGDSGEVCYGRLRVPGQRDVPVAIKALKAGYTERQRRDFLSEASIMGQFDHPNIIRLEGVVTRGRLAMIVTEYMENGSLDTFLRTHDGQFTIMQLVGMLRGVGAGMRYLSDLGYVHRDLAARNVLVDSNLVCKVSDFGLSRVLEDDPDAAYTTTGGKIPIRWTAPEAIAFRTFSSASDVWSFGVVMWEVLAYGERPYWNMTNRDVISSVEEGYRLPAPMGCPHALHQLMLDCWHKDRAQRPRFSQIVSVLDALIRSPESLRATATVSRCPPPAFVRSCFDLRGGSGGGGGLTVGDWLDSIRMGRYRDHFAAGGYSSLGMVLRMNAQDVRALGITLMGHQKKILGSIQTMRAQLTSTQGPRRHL
Method in brief: as §1

[3] = biological target: T3, scanMAX Kinase assay panel (Homo sapiens, UniProt Q12866); details: MERTK; 1 uM; read-out: Percent Control (%)
T3 construct: purchased DiscoverX
T3 sequence (Q12866 21-999): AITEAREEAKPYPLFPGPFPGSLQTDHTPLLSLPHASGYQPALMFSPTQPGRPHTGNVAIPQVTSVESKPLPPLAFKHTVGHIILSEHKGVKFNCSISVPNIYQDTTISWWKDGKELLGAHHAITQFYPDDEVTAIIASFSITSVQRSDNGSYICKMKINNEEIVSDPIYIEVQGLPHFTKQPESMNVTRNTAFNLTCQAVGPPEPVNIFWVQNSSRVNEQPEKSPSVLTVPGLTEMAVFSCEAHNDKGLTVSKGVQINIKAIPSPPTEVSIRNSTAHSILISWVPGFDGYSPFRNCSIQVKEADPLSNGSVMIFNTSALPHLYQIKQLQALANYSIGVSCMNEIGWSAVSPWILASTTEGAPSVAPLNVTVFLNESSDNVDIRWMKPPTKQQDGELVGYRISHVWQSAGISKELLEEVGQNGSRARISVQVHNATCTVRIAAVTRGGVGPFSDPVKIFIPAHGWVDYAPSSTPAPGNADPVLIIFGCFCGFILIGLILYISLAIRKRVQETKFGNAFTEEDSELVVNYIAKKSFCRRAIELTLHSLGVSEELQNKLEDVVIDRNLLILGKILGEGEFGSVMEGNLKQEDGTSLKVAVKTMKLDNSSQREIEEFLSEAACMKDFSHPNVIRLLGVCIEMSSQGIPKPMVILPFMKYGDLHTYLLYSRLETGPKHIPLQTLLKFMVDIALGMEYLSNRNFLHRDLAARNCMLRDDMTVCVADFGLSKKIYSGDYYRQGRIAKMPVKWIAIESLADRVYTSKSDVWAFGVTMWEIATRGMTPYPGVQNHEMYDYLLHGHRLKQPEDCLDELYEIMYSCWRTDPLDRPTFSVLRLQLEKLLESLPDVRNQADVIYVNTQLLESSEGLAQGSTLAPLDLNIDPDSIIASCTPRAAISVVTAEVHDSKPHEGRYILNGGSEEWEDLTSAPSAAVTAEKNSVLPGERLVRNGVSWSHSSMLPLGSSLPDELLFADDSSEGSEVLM
Method in brief: as §1

[4] = biological target: T4, scanMAX Kinase assay panel (Homo sapiens, UniProt Q8WTQ7); details: GRK7; 1 uM; read-out: Percent Control (%)
T4 construct: purchased DiscoverX
T4 sequence (Q8WTQ7 1-553): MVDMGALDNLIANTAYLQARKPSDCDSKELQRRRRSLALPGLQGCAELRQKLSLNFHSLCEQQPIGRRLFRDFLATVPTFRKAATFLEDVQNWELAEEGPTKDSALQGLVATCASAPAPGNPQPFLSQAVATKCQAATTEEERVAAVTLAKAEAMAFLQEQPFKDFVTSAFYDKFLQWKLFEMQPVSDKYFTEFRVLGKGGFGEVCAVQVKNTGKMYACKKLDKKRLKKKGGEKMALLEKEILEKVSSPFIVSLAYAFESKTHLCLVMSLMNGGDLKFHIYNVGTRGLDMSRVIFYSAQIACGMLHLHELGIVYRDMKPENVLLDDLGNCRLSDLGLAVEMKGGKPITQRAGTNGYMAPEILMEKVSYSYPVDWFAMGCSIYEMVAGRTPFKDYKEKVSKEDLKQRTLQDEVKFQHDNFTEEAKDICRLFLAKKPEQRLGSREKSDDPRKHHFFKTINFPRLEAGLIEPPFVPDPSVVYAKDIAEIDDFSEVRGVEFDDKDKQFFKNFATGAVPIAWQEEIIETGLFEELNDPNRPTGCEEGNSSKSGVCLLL
Method in brief: as §1

T1 sequence (P00533 25-1210 T790M/L858R): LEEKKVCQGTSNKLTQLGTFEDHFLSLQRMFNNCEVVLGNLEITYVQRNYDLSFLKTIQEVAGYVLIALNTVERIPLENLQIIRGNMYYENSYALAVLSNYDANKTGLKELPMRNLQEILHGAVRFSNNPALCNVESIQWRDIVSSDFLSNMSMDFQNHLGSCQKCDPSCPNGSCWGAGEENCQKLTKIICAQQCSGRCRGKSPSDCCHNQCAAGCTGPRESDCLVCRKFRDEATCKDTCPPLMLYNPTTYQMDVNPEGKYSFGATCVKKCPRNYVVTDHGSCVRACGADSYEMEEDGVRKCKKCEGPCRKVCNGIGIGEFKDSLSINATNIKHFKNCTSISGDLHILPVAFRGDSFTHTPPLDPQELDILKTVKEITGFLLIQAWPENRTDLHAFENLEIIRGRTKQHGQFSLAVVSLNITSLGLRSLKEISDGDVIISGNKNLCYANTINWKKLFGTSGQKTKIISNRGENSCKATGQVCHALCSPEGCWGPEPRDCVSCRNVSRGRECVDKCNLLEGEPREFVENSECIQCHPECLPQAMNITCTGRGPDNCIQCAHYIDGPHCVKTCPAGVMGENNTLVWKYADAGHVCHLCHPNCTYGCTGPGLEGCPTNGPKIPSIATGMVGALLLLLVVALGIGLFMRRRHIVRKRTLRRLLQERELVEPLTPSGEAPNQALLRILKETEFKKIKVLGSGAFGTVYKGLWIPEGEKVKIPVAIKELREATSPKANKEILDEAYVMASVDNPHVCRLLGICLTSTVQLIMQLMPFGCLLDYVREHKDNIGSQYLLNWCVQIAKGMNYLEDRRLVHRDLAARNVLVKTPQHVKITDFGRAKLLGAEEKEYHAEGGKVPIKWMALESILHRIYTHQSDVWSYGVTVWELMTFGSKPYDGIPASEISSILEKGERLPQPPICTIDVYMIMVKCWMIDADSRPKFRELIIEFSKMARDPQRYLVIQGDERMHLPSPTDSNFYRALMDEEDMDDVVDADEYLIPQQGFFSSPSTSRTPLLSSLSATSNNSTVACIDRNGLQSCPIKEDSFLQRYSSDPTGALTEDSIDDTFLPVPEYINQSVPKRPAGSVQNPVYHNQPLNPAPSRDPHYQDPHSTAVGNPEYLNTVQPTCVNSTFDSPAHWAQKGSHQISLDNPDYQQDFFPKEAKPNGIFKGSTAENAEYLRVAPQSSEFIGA

Structure (SMILES)	remaining binding at 1 µM [1] [%]	remaining binding at 1 µM [2] [%]	remaining binding at 1 µM [3] [%]	remaining binding at 1 µM [4] [%]
Cc1ccc(C(=O)Nc2ccc(CN3CCN(C)CC3)c(C(F)(F)F)c2)cc1C#Cc1cnc2c(Nc3cnn(C)c3)cccn12 [Example 1, 4-methyl-3-((8-((1-methyl-1H-pyrazol-4-yl)amino)imidazo[1,2-a]pyridin-3-yl)ethynyl)-N-(4-((4-methylpiperazin-1-yl)methyl)-3-(trifluoromethyl)phenyl)benzamide]	17	0	0	81
Cc1cn(-c2cc(NC(=O)c3ccc(C)c(C#Cc4cnc5c(Nc6cnn(C)c6)cccn45)c3)cc(C(F)(F)F)c2)cn1 [Example 12, 4-methyl-N-(3-(4-methyl-1H-imidazol-1-yl)-5-(trifluoromethyl)phenyl)-3-((8-((1-methyl-1H-pyrazol-4-yl)amino)imidazo[1,2-a]pyridin-3-yl)ethynyl)benzamide]	69	1	3	100
Cc1ccc(NC(=O)C2(C(=O)Nc3ccc(F)cc3)CC2)cc1C#Cc1cnc2c(Nc3cnn(C(C)C)c3)cccn12 [Example 78]	84	46	100	92
